Results as given in patent US8772480B2, “Inhibitors of PI3 kinase and/or mTOR” (priority 2009, dated 2014).
Where two headings read alike, the source gives them in different places.

How the values were obtained:
[1] = test system: phosphorylation of Akt at Serine 473 in U87 MG cells; assay: cells; conditions: Homo sapiens, U-87 MG, 2 h
[2] = biological target: PI3Kα (Homo sapiens (Human), UniProt P42336); conditions: read-out: PI3Kα AlphaScreen ® Ki
[3] = read-out: U87Cell IC50, pAkt (Ser 473), U87 MG cells, two hours with compound

Sequence of PI3Kα (P42336 whole entry): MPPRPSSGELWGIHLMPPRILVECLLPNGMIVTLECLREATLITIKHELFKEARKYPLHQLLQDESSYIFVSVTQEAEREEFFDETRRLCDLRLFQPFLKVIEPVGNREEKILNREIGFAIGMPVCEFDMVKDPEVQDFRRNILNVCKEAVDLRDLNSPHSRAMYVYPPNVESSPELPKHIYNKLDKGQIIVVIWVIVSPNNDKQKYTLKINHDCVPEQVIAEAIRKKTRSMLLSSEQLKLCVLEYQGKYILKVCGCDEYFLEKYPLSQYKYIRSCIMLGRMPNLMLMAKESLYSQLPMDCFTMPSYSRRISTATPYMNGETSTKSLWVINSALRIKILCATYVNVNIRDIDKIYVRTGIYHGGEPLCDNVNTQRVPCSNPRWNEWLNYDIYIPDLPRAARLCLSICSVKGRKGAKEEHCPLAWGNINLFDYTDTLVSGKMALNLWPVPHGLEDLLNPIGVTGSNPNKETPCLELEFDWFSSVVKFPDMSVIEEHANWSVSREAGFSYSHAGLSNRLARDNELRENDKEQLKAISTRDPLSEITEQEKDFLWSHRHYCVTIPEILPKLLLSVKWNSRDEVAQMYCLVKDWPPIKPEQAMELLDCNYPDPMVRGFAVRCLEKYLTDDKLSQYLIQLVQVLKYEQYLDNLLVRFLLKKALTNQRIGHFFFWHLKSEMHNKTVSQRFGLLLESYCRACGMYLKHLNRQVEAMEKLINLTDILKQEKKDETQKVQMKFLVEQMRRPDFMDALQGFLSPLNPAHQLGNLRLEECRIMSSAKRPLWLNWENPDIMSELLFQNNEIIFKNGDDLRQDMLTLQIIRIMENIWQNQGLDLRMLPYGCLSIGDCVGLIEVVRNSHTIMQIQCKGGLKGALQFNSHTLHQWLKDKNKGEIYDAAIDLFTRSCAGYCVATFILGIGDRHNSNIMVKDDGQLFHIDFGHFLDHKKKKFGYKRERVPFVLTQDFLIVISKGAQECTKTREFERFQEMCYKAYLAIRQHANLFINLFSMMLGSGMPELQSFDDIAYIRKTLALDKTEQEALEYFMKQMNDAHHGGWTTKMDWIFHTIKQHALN
Sequence of PI3Kα (P27986 whole entry partner): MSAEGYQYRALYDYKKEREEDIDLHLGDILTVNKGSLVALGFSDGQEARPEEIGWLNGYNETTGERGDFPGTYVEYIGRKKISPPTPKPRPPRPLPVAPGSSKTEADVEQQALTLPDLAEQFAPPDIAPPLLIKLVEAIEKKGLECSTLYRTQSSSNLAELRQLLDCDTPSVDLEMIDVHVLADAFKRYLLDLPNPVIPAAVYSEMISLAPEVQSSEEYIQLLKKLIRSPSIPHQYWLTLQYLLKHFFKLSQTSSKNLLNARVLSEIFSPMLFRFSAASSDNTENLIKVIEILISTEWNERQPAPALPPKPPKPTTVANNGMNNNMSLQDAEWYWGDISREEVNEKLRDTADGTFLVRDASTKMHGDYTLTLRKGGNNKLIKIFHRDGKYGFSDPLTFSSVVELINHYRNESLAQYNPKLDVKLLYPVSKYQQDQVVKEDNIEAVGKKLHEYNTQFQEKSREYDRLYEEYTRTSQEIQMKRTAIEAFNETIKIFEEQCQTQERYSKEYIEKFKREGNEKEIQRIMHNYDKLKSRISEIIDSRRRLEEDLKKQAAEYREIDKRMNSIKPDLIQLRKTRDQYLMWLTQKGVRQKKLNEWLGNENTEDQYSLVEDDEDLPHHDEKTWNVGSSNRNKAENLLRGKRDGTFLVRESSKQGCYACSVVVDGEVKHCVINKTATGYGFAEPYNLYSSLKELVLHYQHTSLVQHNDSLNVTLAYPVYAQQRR

Structure (SMILES)	Ki [2] [nM]	IC50 [1, 3] [nM]	IC50 ([1]; read-out: U87Cell IC50) [nM]
COc1ccc(Nc2ncc(C3=CCNCC3)cc2-c2nc(C)nc(N)n2)cn1 [Example 249, 4-(2-(6-Methoxypyridin-3-Ylamino)-5-(1,2,3,6-Tetrahydropyridin-4-yl)Pyridin-3-yl)-6-Methyl-1,3,5-Triazin-2-Amine]	21		88
Cc1nc(N)cc(-c2nccnc2Nc2cnc(Cl)c(NS(C)(=O)=O)c2)n1 [Example 307, N-(5-((3-(6-amino-2-methyl-4-pyrimidinyl)-2-pyrazinyl)amino)-2-chloro-3-pyridinyl)methanesulfonamide]	260	> 10000	
Cc1nc(N)nc(-c2cc(CN3CCN(S(C)(=O)=O)CC3)cnc2Nc2cnc3c(c2)ncn3C)n1 [Example 203, N-(3-(4-Amino-6-Methyl-1,3,5-Triazin-2-yl)-5-((4-(Methylsulfonyl)Piperazin-1-yl)Methyl)Pyridin-2-yl)-3-Methyl-3H-Imidazo[4,5-B]Pyridin-6-Amine]	16	562	
COc1ncc(Nc2ncc(CN3CCN(C(=O)N(C)C)CC3)cc2-c2nc(C)nc(N)n2)cc1F [Example 159, 4-((5-(4-Amino-6-Methyl-1,3,5-Triazin-2-yl)-6-(5-Fluoro-6-Methoxypyridin-3-Ylamino)Pyridin-3-yl)Methyl)-N,N-Dimethylpiperazine-1-Carboxamide]	11	11	
COc1ncc(Nc2ncc(C(C)(C)N3CCOCC3)cc2-c2nc(C)nc(N)n2)cc1F [Example 281, 4-(2-(5-Fluoro-6-Methoxypyridin-3-Ylamino)-5-(2-Morpholinopropan-2-yl)Pyridin-3-yl)-6-Methyl-1,3,5-Triazin-2-Amine]	6	16	
Cc1nc(N)nc(-c2cccnc2Nc2cnc(C)c(NS(C)(=O)=O)c2)n1 [Example 377, N-(5-(3-(4-Amino-6-Methyl-1,3,5-Triazin-2-yl)Pyridin-2-Ylamino)-2-Methylpyridin-3-yl)Methanesulfonamide]	279	364	
Cc1cncc(Nc2ncccc2-c2nc(C)nc(N)n2)c1 [Example 174, 4-Methyl-6-(2-(5-Methylpyridin-3-Ylamino)Pyridin-3-yl)-1,3,5-Triazin-2-Amine]	455	> 10000	
Cc1nc(N)nc(-c2cc(CN3CCN(S(C)(=O)=O)CC3)cnc2Nc2cc[nH]n2)n1 [Example 244, 4-(2-(1H-Pyrazol-3-Ylamino)-5-((4-(Methylsulfonyl)Piperazin-1-yl)Methyl)Pyridin-3-yl)-6-Methyl-1,3,5-Triazin-2-Amine]	1460	1490	
COc1ncc(Nc2ncc([C@@H](C)N3CCN(S(C)(=O)=O)CC3)cc2-c2nc(C)nc(N)n2)cc1C(C)C [Example 302, (R)-4-(2-(5-Isopropyl-6-Methoxypyridin-3-Ylamino)-5-(1-(4-(Methylsulfonyl)Piperazin-1-yl)Ethyl)Pyridin-3-yl)-6-Methyl-1,3,5-Triazin-2-Amine]	24	203	
COc1cc(Nc2ncc([C@@H](C)N3CCN(S(C)(=O)=O)CC3)cc2-c2nc(C)nc(N)n2)cnc1Cl [Example 341, (R)-4-(2-(6-Chloro-5-Methoxypyridin-3-Ylamino)-5-(1-(4-(Methylsulfonyl)Piperazin-1-yl)Ethyl)Pyridin-3-yl)-6-Methyl-1,3,5-Triazin-2-Amine]	19	17	
COc1ncc(Nc2ncc([C@@H](C)N3CCOCC3)cc2-c2nc(C)nc(N)n2)cc1F (single isomer, unassigned) [Example 291]	37	7	
Cc1nc(N)cc(-c2cccnc2Nc2cnc(Cl)c(NS(C)(=O)=O)c2)n1 [Example 304, N-(5-((3-(6-amino-2-methyl-4-pyrimidinyl)-2-pyridinyl)amino)-2-chloro-3-pyridinyl)methanesulfonamide]	29	146	
Cc1nc(N)nc(-c2cc(CN3CCN(S(C)(=O)=O)CC3)cnc2Nc2ccc3ocnc3c2)n1 [Example 128, N-(3-(4-amino-6-methyl-1,3,5-triazin-2-yl)-5-((4-(methylsulfonyl)piperazin-1-yl)methyl)pyridin-2-yl)benzo[d]oxazol-5-amine]	7	21	

Further lines, with some results ahead:

Ki [2] [nM]	IC50 [1, 3] [nM]	Structure (SMILES)	IC50 ([1]; read-out: U87Cell IC50) [nM]
31	63	COc1ncc(Nc2ncc(C(C)(C)O)nc2-c2cc(N)nc(C)n2)cc1F [Example 284, 2-(6-(6-Amino-2-Methylpyrimidin-4-yl)-5-(5-Fluoro-6-Methoxypyridin-3-Ylamino)Pyrazin-2-yl)Propan-2-ol]	
57	378	COc1ccc(Nc2ncc(NCc3ccccc3)cc2-c2nc(C)nc3[nH]cnc23)cn1 [Example 91, N5-benzyl-N2-(6-methoxypyridin-3-yl)-3-(2-methyl-9H-purin-6-yl)pyridine-2,5-diamine]	
23	> 10000	COc1ccc(Nc2ncc(C(O)c3cc(Br)ccc3S(=O)(=O)N(C)C)cc2-c2nc(C)nc(N)n2)cn1 (centres unmarked) [Example 235, 2-((5-(4-Amino-6-Methyl-1,3,5-Triazin-2-yl)-6-(6-Methoxypyridin-3-Ylamino)Pyridin-3-yl)(Hydroxy)Methyl)-4-Bromo-N,N-Dimethylbenzenesulfonamide]	
43	209	COc1ccc(Nc2ncc(CN3CCN(C(=O)N(C)C)CC3)cc2-c2nc(C)nc3[nH]cnc23)cn1 [Example 87, 4-((6-(6-Methoxypyridin-3-Ylamino)-5-(2-Methyl-9H-Purin-6-yl)Pyridin-3-yl)Methyl)-N,N-Dimethylpiperazine-1-Carboxamide]	
77	272	COc1ccc(CNc2cnc(Nc3ccc(OC)nc3)c(-c3nc(C)nc4[nH]cnc34)c2)cc1 [Example 95, N5-(4-methoxybenzyl)-N2-(6-methoxypyridin-3-yl)-3-(2-methyl-9H-purin-6-yl)pyridine-2,5-diamine]	
59	13	COc1ncc(Nc2ncc(C(C)O)cc2-c2nc(C)nc(N)n2)cc1F (centres unmarked) [Example 349, 1-(5-(4-Amino-6-Methyl-1,3,5-Triazin-2-yl)-6-(5-Fluoro-6-Methoxypyridin-3-Ylamino)Pyridin-3-yl)Ethanol]	
4	14	Cc1nc(-c2cc(C(C)N3CCOCC3)cnc2Nc2cnc(Cl)c(NS(=O)(=O)N(C)C)c2)c2nc[nH]c2n1 (centres unmarked) [Example 340, N′-(2-Chloro-5-((3-(2-Methyl-9H-Purin-6-yl)-5-(1-(4-Morpholinyl)Ethyl)-2-Pyridinyl)Amino)-3-Pyridinyl)-N,N-Dimethylsulfamide]	
55	36	COCCOc1cnc(Nc2cnc(OC)c(NS(C)(=O)=O)c2)c(-c2nc(C)nc(N)n2)c1 [Example 336, N-(5-(3-(4-Amino-6-Methyl-1,3,5-Triazin-2-yl)-5-(2-Methoxyethoxy)Pyridin-2-Ylamino)-2-Methoxypyridin-3-yl)Methanesulfonamide]	
160	674	Cc1nc(N)nc(-c2cccnc2Nc2ccc(Cl)nc2)n1 [Example 54, 4-(2-(6-Chloropyridin-3-Ylamino)Pyridin-3-yl)-6-Methyl-1,3,5-Triazin-2-Amine]	
38	> 10000	COc1ccc(Nc2nc3ccccc3cc2-c2nc(C)nc3[nH]cnc23)cn1 [Example 113, N-(6-Methoxypyridin-3-yl)-3-(2-Methyl-9H-Purin-6-yl)Quinolin-2-Amine]	
124	61	COc1ccc(Nc2ncc(C(C)(O)C(F)(F)F)cc2-c2nc(C)nc(N)n2)cn1 (centres unmarked) [Example 320, 2-(5-(4-amino-6-methyl-1,3,5-triazin-2-yl)-6-(6-methoxypyridin-3-ylamino)pyridin-3-yl)-1,1,1-trifluoropropan-2-ol]	
7	26	COc1ccc(Nc2ncc(C3(N4CCN(S(C)(=O)=O)CC4)CC3)cc2-c2nc(C)nc(N)n2)cn1 [Example 282, 4-(2-(6-Methoxypyridin-3-Ylamino)-5-(1-(4-(Methylsulfonyl)Piperazin-1-yl)Cyclopropyl)Pyridin-3-yl)-6-Methyl-1,3,5-Triazin-2-Amine]	
56	170	COc1ccc(Nc2ncc(C(C)(C)N)cc2-c2nc(C)nc(N)n2)cn1 [Example 277, 4-(5-(2-Aminopropan-2-yl)-2-(6-Methoxypyridin-3-Ylamino)Pyridin-3-yl)-6-Methyl-1,3,5-Triazin-2-Amine]	
120	435	COc1ccc(Nc2ncc(CNC(C)C)cc2-c2nc(C)nc3[nH]cnc23)cn1 [Example 135, 5-((isopropylamino)methyl)-N-(6-methoxypyridin-3-yl)-3-(2-methyl-9H-purin-6-yl)pyridin-2-amine]	
147	124	COc1ccc(Nc2ncc(CN3CC[S+]([O-])CC3)cc2-c2nc(C)nc(N)n2)cn1 [Example 202, 4-(2-(6-Methoxypyridin-3-Ylamino)-5-(1-Sulfoxidemorpholinomethyl)Pyridin-3-yl)-6-Methyl-1,3,5-Triazin-2-Amine]	
104	929	COCCNc1cnc(Nc2ccc(OC)nc2)c(-c2nc(C)nc3[nH]cnc23)c1 [Example 93, N5-(2-methoxyethyl)-N2-(6-methoxypyridin-3-yl)-3-(2-methyl-9H-purin-6-yl)pyridine-2,5-diamine]	
270	117	COc1cnc(Nc2cnc(Cl)c(N)c2)c(-c2nc(C)nc(N)n2)c1 [Example 368, N5-(3-(4-Amino-6-Methyl-1,3,5-Triazin-2-yl)-5-Methoxypyridin-2-yl)-2-Chloropyridine-3,5-Diamine]	
6	7	COc1ccc(Nc2ncc([C@@H](C)N3CCN(S(C)(=O)=O)CC3)cc2-c2nc(C)nc(N)n2)cn1 [Example 146, (R)-4-(2-(6-Methoxypyridin-3-Ylamino)-5-(1-(4-(Methylsulfonyl)Piperazin-1-yl)Ethyl)Pyridin-3-yl)-6-Methyl-1,3,5-Triazin-2-Amine]	
